Drawing on ChEMBL document CHEMBL1159178, “The use of a proline ring as a conformational restraint in CCK-B receptor dipeptoids” (Bioorg Med Chem Lett, 1992), this text covers IC50 for three compounds.

In test [1] the target is T1, Gastrin/cholecystokinin type B receptor (Mus musculus, UniProt P56481).
T1 sequence (P56481 whole entry): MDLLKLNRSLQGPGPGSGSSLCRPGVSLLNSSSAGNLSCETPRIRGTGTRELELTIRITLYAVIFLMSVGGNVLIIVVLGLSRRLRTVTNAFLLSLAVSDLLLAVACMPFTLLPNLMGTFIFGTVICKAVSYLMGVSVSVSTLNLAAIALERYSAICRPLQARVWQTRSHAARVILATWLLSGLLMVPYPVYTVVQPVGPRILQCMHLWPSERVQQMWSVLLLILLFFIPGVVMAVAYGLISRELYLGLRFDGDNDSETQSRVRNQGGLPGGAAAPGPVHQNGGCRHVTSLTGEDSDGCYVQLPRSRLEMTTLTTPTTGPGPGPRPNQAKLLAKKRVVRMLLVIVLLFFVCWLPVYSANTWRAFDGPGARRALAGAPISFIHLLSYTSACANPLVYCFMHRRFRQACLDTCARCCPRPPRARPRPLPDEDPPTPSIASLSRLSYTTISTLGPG
In words: Evaluated for in vitro binding affinity towards cholecystokinin-B (CCK-B) receptor in mouse cerebral cortex using [125I]bolton hunter CCK-26-33 as radioligand; 365-1590. The class given is tissue-based.

In test [2] the target is T2, Cholecystokinin receptor type A (Rattus norvegicus, UniProt P30551).
T2 sequence (P30551 whole entry): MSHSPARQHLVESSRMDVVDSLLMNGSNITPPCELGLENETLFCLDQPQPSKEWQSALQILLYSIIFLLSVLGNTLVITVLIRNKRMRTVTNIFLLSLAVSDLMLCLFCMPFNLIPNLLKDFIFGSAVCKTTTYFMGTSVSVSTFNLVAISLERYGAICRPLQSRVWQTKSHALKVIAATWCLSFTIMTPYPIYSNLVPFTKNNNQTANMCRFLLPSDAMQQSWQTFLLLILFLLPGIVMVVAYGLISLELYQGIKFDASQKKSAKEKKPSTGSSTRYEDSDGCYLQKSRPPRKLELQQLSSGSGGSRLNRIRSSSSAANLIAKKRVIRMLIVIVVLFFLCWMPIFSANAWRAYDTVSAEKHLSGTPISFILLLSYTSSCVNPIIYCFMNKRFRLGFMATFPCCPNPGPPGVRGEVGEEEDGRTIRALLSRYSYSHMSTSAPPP
In words: Evaluated for in vitro binding affinity to cholecystokinin-A (CCK-A) receptor in homogenized rat pancreas using [125I]bolton hunter CCK-26-33 as radioligand; 770-2020.

For test [3], the target named is T1, Gastrin/cholecystokinin type B receptor. In words: Evaluated for in vitro binding affinity towards cholecystokinin-B (CCK-B) receptor in mouse cerebral cortex using [125I]bolton hunter CCK-26-33 as radioligand; 4.2-8.9. It counts as tissue-based.
Test [4] has as its target T2, Cholecystokinin receptor type A. Description: Evaluated for in vitro binding affinity to cholecystokinin-A (CCK-A) receptor in homogenized rat pancreas using [125I]bolton hunter CCK-26-33 as radioligand; 690-850.
Test [5] has as its target T1, Gastrin/cholecystokinin type B receptor. In words: Evaluated for in vitro binding affinity towards cholecystokinin-B (CCK-B) receptor in mouse cerebral cortex using [125I]bolton hunter CCK-26-33 as radioligand; 1790-2700. It counts as tissue-based.
The target in test [6] is T2, Cholecystokinin receptor type A. In words: Evaluated for in vitro binding affinity to cholecystokinin-A (CCK-A) receptor in homogenized rat pancreas using [125I]bolton hunter CCK-26-33 as radioligand; 743-1710.

Broadly, the IC50 is the concentration at which inhibition is half-maximal. The low end stands for higher potency, the high end for lower potency.

Take `CC(Cc1c[nH]c2ccccc12)(NC(=O)OC1C2CC3CC(C2)CC1C3)C(=O)NC(CO)Cc1ccccc1` (stereo unspecified): the IC50 in test [1] came out at 852 nM; in test [2], 1080 nM.

For the compound `O=C(NC(Cc1c[nH]c2ccccc12)C(=O)NC(CO)Cc1ccccc1)OC1C2CC3CC(C2)CC1C3` (stereo unspecified), the IC50 in test [3] came to 6.3 nM; in test [4], 780 nM.

Turning to `O=C(OC1C2CC3CC(C2)CC1C3)N1CCCC1(Cc1c[nH]c2ccccc12)C(=O)NC(CO)Cc1ccccc1` (stereo unspecified), the IC50 worked out at 2080 nM in test [5] and 1050 nM in test [6].
